Assay results reported in the supplement of paper PMC10307832.

Legend:
Test in all cases: relative viability (nuclei count vs DMSO), 5 days (fraction); higher = more cells survive
Linsitinib + Crizotinib = compound: C[C@]1(O)C[C@@H](c2nc(-c3ccc4ccc(-c5ccccc5)nc4c3)c3c(N)nccn32)C1 [Linsitinib] + C[C@@H](Oc1cc(-c2cnn(C3CCNCC3)c2)cnc1N)c1c(Cl)ccc(F)c1Cl [Crizotinib] (partner 1 µM)
Procedure, shortened: (§1)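 Lung cancer cell lines in 1536-well plates got either a single drug or a fixed anchor-drug dose together with five library-drug doses (not always all listed) in √10 steps, by pin tool, on the day after seeding. Nuclei were counted after 5 days, and relative viability is the treated-to-vehicle ratio of nuclei counts. Values are medians of duplicate plates.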

Linsitinib + Olaparib = compound: C[C@]1(O)C[C@@H](c2nc(-c3ccc4ccc(-c5ccccc5)nc4c3)c3c(N)nccn32)C1 [Linsitinib] + O=C(c1cc(Cc2n[nH]c(=O)c3ccccc23)ccc1F)N1CCN(C(=O)C2CC2)CC1 [Olaparib] (partner 8 µM)
Procedure, shortened: as §1

Ispinesib + Bortezomib = compound: Cc1ccc(C(=O)N(CCCN)[C@@H](c2nc3cc(Cl)ccc3c(=O)n2Cc2ccccc2)C(C)C)cc1 [Ispinesib] + CC(C)C[C@H](NC(=O)[C@H](Cc1ccccc1)NC(=O)c1cnccn1)B(O)O [Bortezomib] (partner 0.002 µM)
Procedure, shortened: as §1

Ispinesib + Decitabine = compound: Cc1ccc(C(=O)N(CCCN)[C@@H](c2nc3cc(Cl)ccc3c(=O)n2Cc2ccccc2)C(C)C)cc1 [Ispinesib] + Nc1ncn([C@H]2C[C@H](O)[C@@H](CO)O2)c(=O)n1 [Decitabine] (partner 2 µM)
Procedure, shortened: as §1

| Cell Line | relative viability (Linsitinib + Crizotinib; first compound 0.01 µM) | relative viability (Linsitinib + Crizotinib; first compound 0.03162 µM) | relative viability (Linsitinib + Crizotinib; first compound 0.1 µM) | relative viability (Linsitinib + Crizotinib; first compound 0.3162 µM) | relative viability (Linsitinib + Crizotinib; first compound 1 µM) | relative viability (Linsitinib + Olaparib; first compound 0.01 µM) | relative viability (Linsitinib + Olaparib; first compound 0.03162 µM) | relative viability (Linsitinib + Olaparib; first compound 0.1 µM) | relative viability (Linsitinib + Olaparib; first compound 0.3162 µM) | relative viability (Linsitinib + Olaparib; first compound 1 µM) | relative viability (Ispinesib + Bortezomib; first compound 0.001 µM) | relative viability (Ispinesib + Bortezomib; first compound 0.003162 µM) | relative viability (Ispinesib + Bortezomib; first compound 0.01 µM) | relative viability (Ispinesib + Bortezomib; first compound 0.03162 µM) | relative viability (Ispinesib + Bortezomib; first compound 0.1 µM) | relative viability (Ispinesib + Decitabine; first compound 0.001 µM) | relative viability (Ispinesib + Decitabine; first compound 0.003162 µM) | relative viability (Ispinesib + Decitabine; first compound 0.01 µM) | relative viability (Ispinesib + Decitabine; first compound 0.03162 µM) | relative viability (Ispinesib + Decitabine; first compound 0.1 µM) |
| --- | --- | --- | --- | --- | --- | --- | --- | --- | --- | --- | --- | --- | --- | --- | --- | --- | --- | --- | --- | --- |
| NCI-H1975 | 0.949 | 0.993 | 0.918 | 0.899 | 0.727 | 0.775 | 0.678 | 0.737 | 0.645 | 0.584 | 0.471 | 0.437 | 0.331 | 0.19 | 0.261 | 0.382 | 0.436 | 0.37 | 0.288 | 0.221 |
| NCI-H1993 | 0.867 | 0.852 | 0.866 | 0.969 | 0.636 | 1.09 | 0.692 | 0.879 | 0.698 | 0.982 | 1.23 | 1.14 | 1.1 | 1.03 | 0.585 | 0.679 | 0.667 | 0.555 | 0.678 | 0.479 |
| NCI-H2009 | 0.988 | 1.04 | 1.06 | 0.975 | 1.04 | 0.652 | 0.672 | 0.744 | 0.533 | 0.695 | 1 | 0.986 | 0.854 | 0.189 | 0.261 | 0.447 | 0.365 | 0.383 | 0.366 | 0.244 |
| NCI-H2023 | 0.57 | 0.474 | 0.753 | 0.374 | 0.359 | 0.468 | 0.39 | 0.617 | 0.378 | 0.453 | 1 | 1.02 | 0.713 | 0.144 | 0.147 | 0.226 | 0.233 | 0.247 | 0.129 | 0.103 |
| NCI-H2085 | 0.956 | 0.939 | 0.999 | 0.68 | 0.763 | 0.743 | 0.795 | 0.901 | 0.713 | 0.805 | 1.08 | 1.08 | 1.18 | 0.818 | 0.484 | 0.487 | 0.524 | 0.581 | 0.577 | 0.556 |
| NCI-H2087 | 0.763 | 1.01 | 0.836 | 0.842 | 0.729 | 0.572 | 0.639 | 0.609 | 0.51 | 0.47 | 0.852 | 0.978 | 1.05 | 0.477 | 0.153 | 0.346 | 0.297 | 0.241 | 0.194 | 0.122 |
| NCI-H2126 | 0.972 | 1.06 | 0.988 | 0.841 | 0.903 | 0.962 | 0.957 | 0.934 | 0.779 | 0.862 | 1.1 | 1.14 | 1.24 | 1.14 | 0.773 | 0.541 | 0.536 | 0.57 | 0.551 | 0.559 |
